Data taken from PubChem BioAssay AID1963962 (Molecular Pharmacology Branch, DTP, NCI, 2024).

Test system: 967376-340-R-J2-PDC multicell spheroid viability
Test: Anticancer human tumor 967376-340-R-J2-PDC patient-derived colon adenocarcinoma cell line growth inhibition [PI3K]
Details: for IC50: curve of first compound; for viability, T/C: stronger effect = lower value
Method in brief: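 Targeted small molecules plus PI3K inhibitors, half-log dose series from Cmax (default top 10 microM), were applied to heterotypic spheroids of cancer cells with HUVEC and MSCs. Viability indicated growth inhibition.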

[1] = second compound 0.00316 µM, first compound 0.000316 µM
[2] = second compound 0.00316 µM, first compound 0.001 µM
[3] = second compound 0.00316 µM, first compound 0.00316 µM
[4] = second compound 0.00316 µM, first compound 0.01 µM
[5] = second compound 0.00316 µM, first compound 0.0316 µM
[6] = second compound 0.00316 µM, first compound 0.1 µM
[7] = second compound 0.01 µM, first compound 0.000316 µM
[8] = second compound 0.01 µM, first compound 0.001 µM
[9] = second compound 0.01 µM, first compound 0.00316 µM
[10] = second compound 0.01 µM, first compound 0.01 µM
[11] = second compound 0.01 µM, first compound 0.0316 µM
[12] = second compound 0.01 µM, first compound 0.1 µM
[13] = second compound 0.0316 µM, first compound 0.000316 µM
[14] = second compound 0.0316 µM, first compound 0.001 µM
[15] = second compound 0.0316 µM, first compound 0.00316 µM
[16] = second compound 0.0316 µM, first compound 0.01 µM
[17] = second compound 0.0316 µM, first compound 0.0316 µM
[18] = second compound 0.0316 µM, first compound 0.1 µM
[19] = second compound 0.1 µM, first compound 0.000316 µM
[20] = second compound 0.1 µM, first compound 0.001 µM
[21] = second compound 0.1 µM, first compound 0.00316 µM
[22] = second compound 0.1 µM, first compound 0.01 µM
[23] = second compound 0.1 µM, first compound 0.0316 µM
[24] = second compound 0.1 µM, first compound 0.1 µM
[25] = second compound 0.316 µM, first compound 0.000316 µM
[26] = second compound 0.316 µM, first compound 0.001 µM
[27] = second compound 0.316 µM, first compound 0.00316 µM
[28] = second compound 0.316 µM, first compound 0.01 µM
[29] = second compound 0.316 µM, first compound 0.0316 µM
[30] = second compound 0.316 µM, first compound 0.1 µM
[31] = second compound 1 µM, first compound 0.000316 µM
[32] = second compound 1 µM, first compound 0.001 µM
[33] = second compound 1 µM, first compound 0.00316 µM
[34] = second compound 1 µM, first compound 0.01 µM
[35] = second compound 1 µM, first compound 0.0316 µM
[36] = second compound 1 µM, first compound 0.1 µM
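Note: spheroids exposed to agents for 7 days before read-out.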
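Throughout, for viability, T/C: luminescence used as surrogate of cell viability.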

`CC(=O)c1c(C)c2cnc(Nc3ccc(N4CCNCC4)cn3)nc2n(C2CCCC2)c1=O` + COc1c(OCCCN2CCOCC2)ccc2c3n(c(=NC(=O)c4cnc(N)nc4)nc12)CCN3 was tested, and the IC50 (second compound 0.00316 µM) was > 100 nM, the IC50 (second compound 0.01 µM) was > 100 nM and the IC50 (second compound 0.0316 µM) was > 100 nM. The IC50 (second compound 0.1 µM) was > 100 nM, the IC50 (second compound 0.316 µM) was < 0.316 nM and the IC50 (second compound 1 µM) was < 0.316 nM. For the same compound, the viability, T/C [1] was 92.9%, the viability, T/C [2] was 95.8% and the viability, T/C [3] was 94.7%. It also gave a viability, T/C [4] of 88.5%, a viability, T/C [5] of 87.5% and a viability, T/C [6] of 74.7%. For the same compound, the viability, T/C [7] was 89.8%, the viability, T/C [8] was 99.5% and the viability, T/C [9] was 92.2%. It also gave a viability, T/C [10] of 101%, a viability, T/C [11] of 78% and a viability, T/C [12] of 60.9%. It also gave a viability, T/C [13] of 72.4%, a viability, T/C [14] of 79.9% and a viability, T/C [15] of 73.2%. For the same compound, the viability, T/C [16] was 73.8%, the viability, T/C [17] was 86.3% and the viability, T/C [18] was 74.3%. The viability, T/C [19] was 64.2%, the viability, T/C [20] was 49.7% and the viability, T/C [21] was 64.5%. The viability, T/C [22] was 59.3%, the viability, T/C [23] was 62.1% and the viability, T/C [24] was 54.6%. For the same compound, the viability, T/C [25] was 46.7%, the viability, T/C [26] was 39% and the viability, T/C [27] was 37%. It also gave a viability, T/C [28] of 42.2%, a viability, T/C [29] of 45.5% and a viability, T/C [30] of 44.7%. The viability, T/C [31] was 41.5%, the viability, T/C [32] was 37.3% and the viability, T/C [33] was 34.8%. The viability, T/C [34] was 33.5%, the viability, T/C [35] was 34.3% and the viability, T/C [36] was 27.9%.

In the case of `CC(C)n1nc(-c2ccc3oc(N)nc3c2)c2c(N)ncnc21` + COc1c(OCCCN2CCOCC2)ccc2c3n(c(=NC(=O)c4cnc(N)nc4)nc12)CCN3, the IC50 (second compound 0.00316 µM) is reported as > 100 nM, the IC50 (second compound 0.01 µM) is reported as 98.1 nM and the IC50 (second compound 0.0316 µM) is reported as 32.9 nM. The IC50 (second compound 0.1 µM) was 17.7 nM, the IC50 (second compound 0.316 µM) was 0.541 nM and the IC50 (second compound 1 µM) was < 0.316 nM. For the same compound, the viability, T/C [1] was 85.7%, the viability, T/C [2] was 106% and the viability, T/C [3] was 88.7%. The viability, T/C [4] was 74.1%, the viability, T/C [5] was 76.5% and the viability, T/C [6] was 54.8%. It also gave a viability, T/C [7] of 109%, a viability, T/C [8] of 97.2% and a viability, T/C [9] of 81%. It also gave a viability, T/C [10] of 91.1%, a viability, T/C [11] of 67.3% and a viability, T/C [12] of 47.1%. It also gave a viability, T/C [13] of 85.9%, a viability, T/C [14] of 83.9% and a viability, T/C [15] of 65.4%. The viability, T/C [16] was 63.8%, the viability, T/C [17] was 50% and the viability, T/C [18] was 39.9%. For the same compound, the viability, T/C [19] was 58%, the viability, T/C [20] was 49.5% and the viability, T/C [21] was 53.9%. It also gave a viability, T/C [22] of 51.5%, a viability, T/C [23] of 47.9% and a viability, T/C [24] of 27%. For the same compound, the viability, T/C [25] was 61.5%, the viability, T/C [26] was 36.3% and the viability, T/C [27] was 38%. The viability, T/C [28] was 41.4%, the viability, T/C [29] was 37.2% and the viability, T/C [30] was 21.9%. For the same compound, the viability, T/C [31] was 34.9%, the viability, T/C [32] was 28.2% and the viability, T/C [33] was 32.1%. It also gave a viability, T/C [34] of 29.8%, a viability, T/C [35] of 31.6% and a viability, T/C [36] of 26.5%.

With `CCCS(=O)(=O)Nc1ccc(F)c(C(=O)c2c[nH]c3ncc(-c4ccc(Cl)cc4)cc23)c1F` + COc1c(OCCCN2CCOCC2)ccc2c3n(c(=NC(=O)c4cnc(N)nc4)nc12)CCN3 the IC50 (second compound 0.00316 µM) was > 10000 nM, the IC50 (second compound 0.01 µM) was > 10000 nM and the IC50 (second compound 0.0316 µM) was > 10000 nM. For the same compound, the IC50 (second compound 0.1 µM) was > 10000 nM, the IC50 (second compound 0.316 µM) was < 31.6 nM and the IC50 (second compound 1 µM) was < 31.6 nM. The viability, T/C [5] was 94.8%, the viability, T/C [6] was 94.7% and the viability, T/C (second compound 0.00316 µM, first compound 0.316 µM) was 82.8%. It also gave a viability, T/C (second compound 0.00316 µM, first compound 1 µM) of 101%, a viability, T/C (second compound 0.00316 µM, first compound 3.16 µM) of 74.3% and a viability, T/C (second compound 0.00316 µM, first compound 10 µM) of 59.6%. It also gave a viability, T/C [11] of 104%, a viability, T/C [12] of 78.9% and a viability, T/C (second compound 0.01 µM, first compound 0.316 µM) of 81.8%. It also gave a viability, T/C (second compound 0.01 µM, first compound 1 µM) of 73.6%, a viability, T/C (second compound 0.01 µM, first compound 3.16 µM) of 90% and a viability, T/C (second compound 0.01 µM, first compound 10 µM) of 61.8%. For the same compound, the viability, T/C [17] was 68.1%, the viability, T/C [18] was 63.4% and the viability, T/C (second compound 0.0316 µM, first compound 0.316 µM) was 73.8%. It also gave a viability, T/C (second compound 0.0316 µM, first compound 1 µM) of 79%, a viability, T/C (second compound 0.0316 µM, first compound 3.16 µM) of 69.7% and a viability, T/C (second compound 0.0316 µM, first compound 10 µM) of 69.1%. The viability, T/C [23] was 63.2%, the viability, T/C [24] was 58.5% and the viability, T/C (second compound 0.1 µM, first compound 0.316 µM) was 77%. The viability, T/C (second compound 0.1 µM, first compound 1 µM) was 51.1%, the viability, T/C (second compound 0.1 µM, first compound 3.16 µM) was 63% and the viability, T/C (second compound 0.1 µM, first compound 10 µM) was 54%. For the same compound, the viability, T/C [29] was 39.4%, the viability, T/C [30] was 36.5% and the viability, T/C (second compound 0.316 µM, first compound 0.316 µM) was 57.1%. It also gave a viability, T/C (second compound 0.316 µM, first compound 1 µM) of 34.6%, a viability, T/C (second compound 0.316 µM, first compound 3.16 µM) of 68.1% and a viability, T/C (second compound 0.316 µM, first compound 10 µM) of 58.8%. It also gave a viability, T/C [35] of 31.6%, a viability, T/C [36] of 41.6% and a viability, T/C (second compound 1 µM, first compound 0.316 µM) of 25.8%. For the same compound, the viability, T/C (second compound 1 µM, first compound 1 µM) was 46.1%, the viability, T/C (second compound 1 µM, first compound 3.16 µM) was 41% and the viability, T/C (second compound 1 µM, first compound 10 µM) was 34.8%.
